According to US6294526A, “Use of flavone derivatives for induction of β-lactam-sensitivity of MRSA” (priority 1998, dated 2001):

What was measured:
MRSA = test: antibacterial activity (MIC) by agar plate dilution method, MRSA strains; type: cell-based, methicillin-resistant Staphylococcus aureus; details: Staphylococcus aureus, 20 h, MRSA (20 strains); for MIC50: read-out: MIC50; for MIC: MRSA, range over strains, read-out: MIC
How it was run: (§1)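 Mueller-Hinton agar plates containing 2-fold serial β-lactam dilutions plus a fixed concentration of test sample; inoculum 10^6 CFU/ml, 37° C. for 20 hours. MIC read as concentration inhibiting growth; MIC80 and MIC50 = 80% and 50% growth inhibition. Flavones dissolved in methanol, others in 0.1 N NaOH.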

MRSA or MSSA = test: inhibition of methicillin resistance by flavone derivatives, MRSA or MSSA; type: cell-based, Staphylococcus aureus; details: methicillin with flavone derivative, Table 4
Procedure: The screening of the present invention may be carried out according to the agar plate dilution method designated by the Japan Society of Chemotherapy (Chemotherapy 29(1), 76-79 (1981)). Mueller-Hinton agar base semi-synthetic medium may be used for a plate culture medium for a sensitivity test together with an inoculating bacteria solution which may be prepared by culturing bacteria to be tested at 37° C. for 20 hours diluted with 8.5% by isotonic sodium chloride solution to 10^6 CFU/ml. Diluted β-lactam solutions are prepared by two times serial dilution. 1 ml of the diluted β-lactam solution and 1 ml of a predetermined concentration of a sample to be tested are added to 8 ml of the plate culture medium for a sensitivity test. […]
Mueller-Hinton agar base semi-synthetic medium was used as a plate culture medium for the sensitivity test, and an inoculating bacteria solution was prepared by culturing bacteria to be tested at 37° C. for 20 hours and diluting with 8.5% by weight isotonic sodium chloride solution to a final concentration of 10^6 CFU/ml. […] To the resultant plate culture medium for the sensitivity test, the inoculating bacteria were inoculated using a microplanter (SAKUMASEISAKUSYO Co.), cultured for 20 hours at 37° C. and then minimum inhibition concentration (MIC) was assessed.

MSSA = test: antibacterial activity (MIC) by agar plate dilution method, MSSA strains; type: cell-based, Methicillin-sensitive Staphylooccus aureus; details: Staphylococcus aureus, 20 h, MSSA (7 strains); for MIC50: read-out: MIC50; for MIC: MSSA, range over strains, read-out: MIC
How it was run: as §1

MIC50 (MRSA) [µg/mL] | MIC (MRSA) [µg/mL] | MIC50 (MSSA) [µg/mL] | MIC (MSSA) [µg/mL] | SMILES | inhibition of resistance to methicillin (in words) (MRSA or MSSA)
> 250 | > 250 | > 250 | > 250 | O=C1c2c(O)cc(O)cc2O[C@H](c2ccc(O)c(O)c2)[C@H]1O [(+)-Taxifolin, (+)-taxifolin] | inhibited resistance to methicillin
> 250 | > 250 | > 250 | > 250 | O=c1cc(-c2ccccc2)oc2ccccc12 [Flavone, flavone] | inhibited the most strongly
